One assay addresses PIK3CG (human) (UniProt P48736). As to the kind of experiment: Inhibition of PIK3CG Kinase Activity.
Another assay concerns the target PIK3CA (human) (UniProt P42336). As to the kind of experiment: Enzyme Assay.

Structures are written as SMILES.

Chain of PIK3CA (human) (P42336 whole entry, looked up): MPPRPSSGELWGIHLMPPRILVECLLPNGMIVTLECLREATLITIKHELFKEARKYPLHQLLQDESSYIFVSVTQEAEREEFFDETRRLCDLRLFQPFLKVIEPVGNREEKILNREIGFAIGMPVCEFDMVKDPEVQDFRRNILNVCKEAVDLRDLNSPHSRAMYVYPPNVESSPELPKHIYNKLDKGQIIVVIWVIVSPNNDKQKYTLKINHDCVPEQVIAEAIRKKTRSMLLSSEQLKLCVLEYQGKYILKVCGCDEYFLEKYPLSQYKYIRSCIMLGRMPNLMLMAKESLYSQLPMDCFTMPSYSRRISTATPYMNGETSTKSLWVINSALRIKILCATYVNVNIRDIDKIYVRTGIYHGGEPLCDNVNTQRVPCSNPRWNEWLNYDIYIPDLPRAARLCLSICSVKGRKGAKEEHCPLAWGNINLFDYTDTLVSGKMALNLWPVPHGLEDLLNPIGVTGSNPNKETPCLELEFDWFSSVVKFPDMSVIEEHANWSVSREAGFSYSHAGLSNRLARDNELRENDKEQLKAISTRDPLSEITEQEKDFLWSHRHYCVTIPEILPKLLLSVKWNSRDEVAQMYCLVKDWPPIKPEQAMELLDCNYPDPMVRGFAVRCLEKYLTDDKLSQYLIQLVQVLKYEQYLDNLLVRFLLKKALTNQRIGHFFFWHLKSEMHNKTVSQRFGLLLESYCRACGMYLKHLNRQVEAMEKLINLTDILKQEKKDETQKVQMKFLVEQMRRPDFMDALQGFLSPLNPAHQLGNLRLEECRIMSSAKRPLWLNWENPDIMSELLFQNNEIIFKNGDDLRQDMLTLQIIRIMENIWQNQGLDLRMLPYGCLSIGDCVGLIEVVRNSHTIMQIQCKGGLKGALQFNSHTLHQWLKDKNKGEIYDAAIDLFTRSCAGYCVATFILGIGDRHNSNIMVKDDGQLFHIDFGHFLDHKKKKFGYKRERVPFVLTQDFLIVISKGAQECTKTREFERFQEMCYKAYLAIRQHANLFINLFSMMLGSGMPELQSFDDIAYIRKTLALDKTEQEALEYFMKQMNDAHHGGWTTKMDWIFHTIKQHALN
Chain of PIK3CG (human) (P48736 whole entry, looked up): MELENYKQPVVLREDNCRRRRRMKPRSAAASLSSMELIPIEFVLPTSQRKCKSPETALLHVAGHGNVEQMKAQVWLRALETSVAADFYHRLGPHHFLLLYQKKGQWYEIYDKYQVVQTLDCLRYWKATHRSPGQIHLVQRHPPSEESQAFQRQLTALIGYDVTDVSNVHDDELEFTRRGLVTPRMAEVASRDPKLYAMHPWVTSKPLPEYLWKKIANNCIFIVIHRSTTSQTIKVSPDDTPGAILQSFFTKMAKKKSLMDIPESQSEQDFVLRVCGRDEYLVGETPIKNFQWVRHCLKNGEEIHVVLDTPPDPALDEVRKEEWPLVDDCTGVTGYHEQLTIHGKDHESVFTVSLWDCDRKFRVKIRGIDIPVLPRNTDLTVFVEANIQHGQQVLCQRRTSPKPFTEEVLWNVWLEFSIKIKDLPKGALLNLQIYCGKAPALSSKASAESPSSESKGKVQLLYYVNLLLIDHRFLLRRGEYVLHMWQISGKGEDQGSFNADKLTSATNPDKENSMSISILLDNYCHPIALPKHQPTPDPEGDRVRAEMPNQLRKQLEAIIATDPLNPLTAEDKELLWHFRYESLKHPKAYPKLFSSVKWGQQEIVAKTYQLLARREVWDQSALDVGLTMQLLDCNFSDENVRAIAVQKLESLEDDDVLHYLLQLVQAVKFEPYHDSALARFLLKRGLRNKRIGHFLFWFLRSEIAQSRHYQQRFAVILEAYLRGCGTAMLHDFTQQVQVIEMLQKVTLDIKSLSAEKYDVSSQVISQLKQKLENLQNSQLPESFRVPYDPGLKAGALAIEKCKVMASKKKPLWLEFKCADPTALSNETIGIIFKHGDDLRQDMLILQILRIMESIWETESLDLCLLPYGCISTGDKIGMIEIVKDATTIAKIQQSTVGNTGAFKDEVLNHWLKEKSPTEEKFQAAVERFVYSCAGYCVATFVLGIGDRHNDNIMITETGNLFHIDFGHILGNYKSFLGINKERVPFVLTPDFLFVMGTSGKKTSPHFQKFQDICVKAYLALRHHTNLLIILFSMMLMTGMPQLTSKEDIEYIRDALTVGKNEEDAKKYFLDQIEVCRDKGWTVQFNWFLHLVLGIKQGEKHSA

Turning to `COc1ccc(-c2cccc3c2c(/C=C2\Oc4cc(O)cc(O)c4C2=O)cn3C)cn1`, the IC50 – broadly, the concentration needed to halve the response being measured – against PIK3CG (human) was found to be 5 µM.
In turn, `CN(c1ccccc1)c1cccc2c1c(/C=C1\Oc3cc(O)cc(O)c3C1=O)cn2C` returned a half-inhibitory concentration (IC50) on PIK3CG (human) of 5 µM.
Take `O=C1C(=Cc2c(-c3ccccc3)n(CCN3CCCCC3)c3ccccc23)Oc2cc(O)cc(O)c21`: the IC50 at PIK3CA (human) came out at 2280 nM; against PIK3CG (human), 4.88 µM.
The compound `O=C1C(=Cc2c(-c3ccccc3)n(Cc3cccnc3)c3ccccc23)Oc2cc(O)cc(O)c21` had an IC50 against PIK3CG (human) of 11 µM.
`COc1ccc2c(c1)c(C=C1Oc3cccc(O)c3C1=O)c(C)n2CCN1CCN(C)CC1`: the half-inhibitory concentration (IC50) against PIK3CA (human) amounted to 488 nM; at PIK3CG (human), 4.5 µM.
`Cn1cc(C=C2Oc3cc(O)cc(O)c3C2=O)c2c(Cl)cccc21` yielded an IC50 against PIK3CG (human) of 10 µM.
As for `Cc1ccc2c(c1)C(=O)/C(=C/c1c(C)[nH]c3ccc([N+](=O)[O-])cc13)S2`, the IC50 against PIK3CA (human) is 9190 nM.
`COc1ccc2c(c1)c(C=C1Oc3cccc(O)c3C1=O)c(C)n2CCN1CCOCC1`: the concentration for half-maximal inhibition (IC50) against PIK3CA (human) was 650 nM; against PIK3CG (human), 4.13 µM.
On PIK3CG (human), `O=C1C(=Cc2c(Br)[nH]c3ccccc23)Oc2c1ccc(O)c2O` registered a concentration for half-maximal inhibition (IC50) of 5 µM. That is a single-digit micromolar value.
On to `COc1cc(/C=C/CC2CCNCC2)c2[nH]cc(/C=C3\Oc4cc(O)ccc4C3=O)c2c1`, for which the results for the IC50 on PIK3CA (human) and at PIK3CG (human) were 48 nM and 1.89 µM, respectively.
`COc1ccc2c(c1)c(/C=C1\Oc3c(ccc(O)c3C)C1=O)c(C)n2CCCN(C)C` gave an IC50 on PIK3CG (human) of 5 µM.
Take `COc1ccc2[nH]c(CCn3ccnc3)c(/C=C3\Oc4cc(O)cc(O)c4C3=O)c2c1`: the values for the IC50 on PIK3CA (human) and against PIK3CG (human) were 9.5 nM and 0.0815 µM, respectively.
For the compound `Cn1cc(/C=C2/Oc3cc(O)cc(O)c3C2=O)c2c(-c3ccccc3)cccc21.Cn1cc(/C=C2\Oc3cc(O)cc(O)c3C2=O)c2c(-c3ccccc3)cccc21`, the 50% inhibitory concentration (IC50) at PIK3CA (human) came to 266 nM.
The same measure, in the same setting: then `CNC(=O)Nc1ccc2c(c1)O/C(=C\c1cn(CCCN(C)C)c3ccc(OC)cc13)C2=O`, with 10000 nM.
`COc1ccc2c(c1)c(C=C1Oc3cccc(O)c3C1=O)c(C)n2CCN1CCN(CCO)CC1`: the values for the IC50 against PIK3CA (human) and against PIK3CG (human) were 478 nM and 3.97 µM, respectively.
The compound `O=C1C(=Cc2c[nH]c3cc(Cl)ccc23)Oc2cc(O)cc(O)c21` had an IC50 on PIK3CG (human) of 10 µM. This counts as double-digit micromolar.
`COc1ccc2[nH]cc(/C=C3\Oc4cc(O)cc(-c5ccccc5)c4C3=O)c2c1`: the half-inhibitory concentration (IC50) against PIK3CA (human) came out at 122 nM.
In the case of `Cn1c(-c2ccc(-c3ccc(CN)cc3)cc2)c(/C=C2\Oc3cc(O)cc(O)c3C2=O)c2ccccc21`, the values for the IC50 against PIK3CA (human) and at PIK3CG (human) were 2860 nM and 9.5 µM, respectively.
On PIK3CG (human), `O=C1/C(=C/c2c[nH]c3ccc(Cl)cc23)Oc2c1ccc(O)c2O` yielded an IC50 of 5 µM. In other words, the single-digit micromolar range.
At PIK3CG (human), `O=C1C(=Cc2c(-c3ccccc3)n(Cc3ccncc3)c3ccccc23)Oc2cc(O)cc(O)c21` gave an IC50 of 11 µM.
As to `COc1ccc2c(c1)c(C=C1Oc3c(ccc(O)c3O)C1=O)c(C)n2CCCCN1CCOCC1`, the IC50 stood at 230 nM against PIK3CA (human) and 0.954 µM against PIK3CG (human).
For `COc1ccc2[nH]cc(/C=C3\Oc4c(OC)cccc4C3=O)c2c1`, on PIK3CA (human), the IC50 was 9860 nM.
With `Cc1cccc2c1c(/C=C1\Oc3cc(O)cc(O)c3C1=O)c(-c1ccccn1)n2C`, the IC50 at PIK3CG (human) worked out at 11 µM. In other words, the double-digit micromolar range.
Regarding `CCc1cc(O)cc2c1C(=O)/C(=C/c1c[nH]c3ccc(OC)cc13)O2`, the IC50 on PIK3CA (human) was 133 nM.
In turn, `CCc1cc(OC)cc2c(/C=C3\Oc4cc(O)cc(O)c4C3=O)cn(CCCC#N)c12` returned an IC50 at PIK3CA (human) of 62.5 nM.
Compound `COc1ccc2[nH]cc(/C=C3\Oc4cc(O)cc(Br)c4C3=O)c2c1` gave a concentration for half-maximal inhibition (IC50) against PIK3CA (human) of 120 nM. Compared with the last compound, the IC50 is about 1.9-fold higher.
Turning to `COc1ccc2c(c1)c(C=C1Oc3c(ccc(O)c3O)C1=O)c(C)n2CCCCN1CCN(CCO)CC1`, the IC50 at PIK3CA (human) turned out to be 204 nM; against PIK3CG (human), 3.17 µM.
For the compound `Cc1ccc2c(c1)C(=O)/C(=C/c1c(-c3ccc4ccccc4c3)[nH]c3ccccc13)S2`, the concentration for half-maximal inhibition (IC50) against PIK3CA (human) is 12000 nM.
Turning to `COc1cc(-c2ccncc2)c2c(c1)c(/C=C1\Oc3cc(O)ccc3C1=O)cn2CCCC#N`, on PIK3CG (human), the IC50 was 5 µM. That is a single-digit micromolar value.
In the case of `Cn1cc(/C=C2\Oc3cc(O)cc(O)c3C2=O)c2c(Br)cccc21`, the values for the IC50 at PIK3CA (human) and at PIK3CG (human) were 3310 nM and 1.94 µM, respectively.
With `CN(C)Cc1ccc(-c2ccc(-c3c(/C=C4\Oc5cc(O)cc(O)c5C4=O)c4ccccc4n3C)cc2)cc1`, the figures for the half-inhibitory concentration (IC50) on PIK3CA (human) and at PIK3CG (human) were 1230 nM and 2.31 µM, respectively.
For `COc1ccc2c(c1)c(C=C1Oc3c(ccc(O)c3O)C1=O)c(C)n2CCCCN1CCN(C)CC1` the same measures were 337 nM and 4.15 µM.
In the same order, the values of `COC(=O)Nc1ccc2c(c1)C(=O)/C(=C/c1cn(CCN3CCN(C)CC3)c3ccc(OC)cc13)O2` are 630 nM and 7.36 µM.
Compound `COc1ccc2[nH]cc(/C=C3\Oc4cc(S(=O)(=O)OC(F)(F)F)ccc4C3=O)c2c1` yielded an IC50 on PIK3CG (human) of 9.35 µM.
On the same count and under the same terms, then `COc1ccc2c(c1)c(/C=C1\Oc3ccc(Br)cc3C1=O)cn2CCCN(C)C`, with 5 µM.

Source of the values: the Kinase Knowledgebase extract (Sharma et al. 2016).
